Columns and labels:
[1] = target: T1, CDK9 (Homo sapiens, UniProt P50750); test: CDK protein degradation activity (Western blotting), CDK9; assay type: cell-based; conditions: MDA-MB-231 cells, 16 hours, Western blot
T1 construct: endogenous in cells; host or cells: MDA-MB-231
Summary of the method: (§1)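 Degradation is judged from CDK2 and CDK9 band intensity relative to tubulin and DMSO-treated cells, after 16 h exposure of MDA-MB-231 cells to three compound concentrations (100 nM, 1 μM, 10 μM).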

[2] = target: T2, CDK2 (Homo sapiens, UniProt P24941); test: CDK protein degradation activity (Western blotting), CDK2; assay type: cell-based; conditions: MDA-MB-231 cells, 16 hours, Western blot
T2 construct: endogenous in cells; host or cells: MDA-MB-231
Summary of the method: as §1

T1 sequence (P50750 whole entry): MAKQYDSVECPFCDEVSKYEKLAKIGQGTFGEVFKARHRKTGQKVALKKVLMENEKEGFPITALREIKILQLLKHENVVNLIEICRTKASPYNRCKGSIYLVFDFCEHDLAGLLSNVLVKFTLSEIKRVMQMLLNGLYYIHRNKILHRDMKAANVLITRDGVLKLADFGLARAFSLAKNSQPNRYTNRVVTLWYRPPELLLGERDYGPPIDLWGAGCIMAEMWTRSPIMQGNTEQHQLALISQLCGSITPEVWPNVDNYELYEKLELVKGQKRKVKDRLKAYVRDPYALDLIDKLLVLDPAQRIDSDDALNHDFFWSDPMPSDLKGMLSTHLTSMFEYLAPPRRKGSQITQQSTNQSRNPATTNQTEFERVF

Row | Enzyme degradation CDK9 (% remaining) @ 0.1 μM [1] | Enzyme degradation CDK9 (% remaining) @ 1 μM [1] | Enzyme degradation CDK9 (% remaining) @ 10 μM [1] | Enzyme degradation CDK2 (% remaining) @ 0.1 μM [2] | Enzyme degradation CDK2 (% remaining) @ 1 μM [2] | Enzyme degradation CDK2 (% remaining) @ 10 μM [2] | SMILES
1 | 0/0/0% | 0/0/0% | 0/0/0% | 10/10/10% | 10/10/10% | 10/10/10% | N#Cc1cccc(C(=O)N[C@H]2C[C@@H](n3cnc4c(Nc5ccc(N6CCN(CC7CCN(C(=O)CNc8cccc9c8C(=O)N(C8CCC(=O)NC8=O)C9=O)CC7)CC6)cc5)ncnc43)C2)n1 (stereo partly drawn) [Compound 420, 6-cyano-N-((1s,3s)-3-(6-((4-(4-((1-((2-(2,6-dioxopiperidin-3-yl)-1,3-dioxoisoindolin-4-yl)glycyl)piperidin-4-yl)methyl)piperazin-1-yl)phenyl)amino)-9H-purin-9-yl)cyclobutyl)picolinamide]
2 | 0/0/0% | 0/0/0% | 0/0/0% | 60/60/60% | 60/60/60% | 60/60/60% | O=C1CC[C@H](N2C(=O)c3ccc(N4CCC(C(=O)N5CCC(CN6CCC(CCNc7ncnc8c7ncn8[C@H]7C[C@@H](NC(=O)Cc8ccccc8)C7)CC6)CC5)CC4)cc3C2=O)C(=O)N1 [Compound 421, N-((1s,3s)-3-(6-((2-(1-((1-(1-(2-(2,6-dioxopiperidin-3-yl)-1,3-dioxoisoindolin-5-yl)piperidin-4-carbonyl)piperidin-4-yl)methyl)piperidin-4-yl)ethyl)amino)-9H-purin-9-yl)cyclobutyl)-2-phenylacetamide]
3 | 20% | 10% | 10% | 30% | 20% | 20% | O=C1CC[C@H](N2C(=O)c3ccc(N4CCC(CN5CCC(CCNc6ncnc7c6ncn7C6CC(NC(=O)Cc7ccccc7)C6)CC5)CC4)cc3C2=O)C(=O)N1 (stereo partly drawn) [Compound 423, N-((1s,3s)-3-(6-((2-(1-((1-(2-(2,6-dioxopiperidin-3-yl)-1,3-dioxoisoindolin-5-yl)piperidin-4-yl)methyl)piperidin-4-yl)ethyl)amino)-9H-purin-9-yl)cyclobutyl)-2-phenylacetamide]
4 | 0/0/0% | 0/0/0% | 0/0/0% | 10/10/10% | 10/10/10% | 10/10/10% | O=C1CC[C@H](n2nnc3ccc(N4CCC(CN5CCN(c6ccc(Nc7ncnc8c7ncn8[C@H]7C[C@@H](NC(=O)c8cccc(C(F)(F)F)n8)C7)cc6)CC5)CC4)cc3c2=O)C(=O)N1 [Compound 424, N-((1s,3s)-3-(6-((4-(4-((1-(3-(2,6-dioxopiperidin-3-yl)-4-oxo-3,4-dihydrobenzo[d][1,2,3]triazin-6-yl)piperidin-4-yl)methyl)piperazin-1-yl)phenyl)amino)-9H-purin-9-yl)cyclobutyl)-6-(trifluoromethyl)picolinamide]
5 | 0/0/0% | 0/0/0% | 0/0/0% | 0/0/0% | 0/0/0% | 0/0/0% | O=C1CC[C@H](N2C(=O)c3cccc(NCC(=O)N4CCC(CN5CCN(c6ccc(Nc7ncnc8c7ncn8[C@H]7C[C@@H](NC(=O)c8cccc(C(F)(F)F)n8)C7)cc6)CC5)CC4)c3C2=O)C(=O)N1 [Compound 425, N-((1s,3s)-3-(6-((4-(4-((1-((2-(2,6-dioxopiperidin-3-yl)-1,3-dioxoisoindolin-4-yl)glycyl)piperidin-4-yl)methyl)piperazin-1-yl)phenyl)amino)-9H-purin-9-yl)cyclobutyl)-6-(trifluoromethyl)picolinamide]
6 | 0% | 0% | 20% | 10% | 10% | 30% | O=C1CC[C@H](N2C(=O)c3cccc(CCCN4CCC(CN5CCN(c6ccc(Nc7ncnc8c7ncn8C7CC(NC(=O)c8cccc(C(F)(F)F)n8)C7)cc6)CC5)CC4)c3C2=O)C(=O)N1 (stereo partly drawn) [Compound 426, N-((1s,3s)-3-(6-((4-(4-((1-(3-(2-(2,6-dioxopiperidin-3-yl)-1,3-dioxoisoindolin-4-yl)propyl)piperidin-4-yl)methyl)piperazin-1-yl)phenyl)amino)-9H-purin-9-yl)cyclobutyl)-6-(trifluoromethyl)picolinamide]
7 | 0% | 0% | 20% | 20/20/20% | 20/20/20% | 20/20/20% | O=C1CC[C@H](N2C(=O)c3cccc(CCCCN4CCC(CN5CCN(c6ccc(Nc7ncnc8c7ncn8[C@H]7C[C@@H](NC(=O)c8cccc(C(F)(F)F)n8)C7)cc6)CC5)CC4)c3C2=O)C(=O)N1 [Compound 427, N-((1s,3s)-3-(6-((4-(4-((1-(4-(2-(2,6-dioxopiperidin-3-yl)-1,3-dioxoisoindolin-4-yl)butyl)piperidin-4-yl)methyl)piperazin-1-yl)phenyl)amino)-9H-purin-9-yl)cyclobutyl)-6-(trifluoromethyl)picolinamide]
8 | 0/0/0% | 0/0/0% | 0/0/0% | 10/10/10% | 10/10/10% | 10/10/10% | O=C1CC[C@H](N2C(=O)c3cc(F)c(N4CCC(CN5CCN(c6ccc(Nc7ncnc8c7ncn8C7CC(NC(=O)c8cccc(F)n8)C7)cc6)CC5)CC4)cc3C2=O)C(=O)N1 (stereo partly drawn) [Compound 428, N-((1s,3s)-3-(6-((4-(4-((1-(2-(2,6-dioxopiperidin-3-yl)-6-fluoro-1,3-dioxoisoindolin-5-yl)piperidin-4-yl)methyl)piperazin-1-yl)phenyl)amino)-9H-purin-9-yl)cyclobutyl)-6-fluoropicolinamide]
9 | 0/0/0% | 0/0/0% | 0/0/0% | 10/10/10% | 10/10/10% | 10/10/10% | O=C1CC[C@H](n2nnc3ccc(N4CCC(CN5CCN(c6ccc(Nc7ncnc8c7ncn8C7CC(NC(=O)c8cccc(F)n8)C7)cc6)CC5)CC4)cc3c2=O)C(=O)N1 (stereo partly drawn) [Compound 429, N-((1s,3s)-3-(6-((4-(4-((1-(3-(2,6-dioxopiperidin-3-yl)-4-oxo-3,4-dihydrobenzo[d][1,2,3]triazin-6-yl)piperidin-4-yl)methyl)piperazin-1-yl)phenyl)amino)-9H-purin-9-yl)cyclobutyl)-6-fluoropicolinamide]
10 | 0/0/0% | 0/0/0% | 0/0/0% | 10/10/10% | 10/10/10% | 10/10/10% | O=C1CC[C@H](N2C(=O)c3cccc(NCC(=O)N4CCC(CN5CCN(c6ccc(Nc7ncnc8c7ncn8C7CC(NC(=O)c8cccc(F)n8)C7)cc6)CC5)CC4)c3C2=O)C(=O)N1 (stereo partly drawn) [Compound 430, N-((1s,3s)-3-(6-((4-(4-((1-((2-(2,6-dioxopiperidin-3-yl)-1,3-dioxoisoindolin-4-yl)glycyl)piperidin-4-yl)methyl)piperazin-1-yl)phenyl)amino)-9H-purin-9-yl)cyclobutyl)-6-fluoropicolinamide]
11 | 0/0/0% | 0/0/0% | 0/0/0% | 30/30/30% | 30/30/30% | 30/30/30% | O=C1CC[C@H](N2C(=O)c3cccc(CCCN4CCC(CN5CCN(c6ccc(Nc7ncnc8c7ncn8C7CC(NC(=O)c8cccc(F)n8)C7)cc6)CC5)CC4)c3C2=O)C(=O)N1 (stereo partly drawn) [Compound 431, N-((1s,3s)-3-(6-((4-(4-((1-(3-(2-(2,6-dioxopiperidin-3-yl)-1,3-dioxoisoindolin-4-yl)propyl)piperidin-4-yl)methyl)piperazin-1-yl)phenyl)amino)-9H-purin-9-yl)cyclobutyl)-6-fluoropicolinamide]
12 | 0/0/0% | 0/0/0% | 0/0/0% | 50% | 40% | 40% | O=C1CCC(N2C(=O)c3cccc(CCCCN4CCC(CN5CCN(c6ccc(Nc7ncnc8c7ncn8[C@H]7C[C@@H](NC(=O)c8cccc(F)n8)C7)cc6)CC5)CC4)c3C2=O)C(=O)N1 (stereo partly drawn) [Compound 432, N-((1s,3s)-3-(6-((4-(4-((1-(4-(2-(2,6-dioxopiperidin-3-yl)-1,3-dioxoisoindolin-4-yl)butyl)piperidin-4-yl)methyl)piperazin-1-yl)phenyl)amino)-9H-purin-9-yl)cyclobutyl)-6-fluoropicolinamide]

From patent publication US20260125382A1, “COMPOUNDS FOR INHIBITING OR DEGRADING CDK2 AND/OR CDK9 AND MEDICINAL USE THEREOF” (KOREA RESEARCH INSTITUTE OF CHEMICAL TECHNOLOGY, priority 2022, published 2026)
